The record followed here is ChEMBL document CHEMBL1201862, “PubChem BioAssay data set” (2004).

In assay [1] the target is Epstein-Barr nuclear antigen 1 (Epstein-Barr virus (strain B95-8) (HHV-4) (Human herpesvirus 4), UniProt P03211). The assay is described as follows: EBNA-1 inhibitors, dose response, biochemical, fluorescence polarization, 1536-well (AID 2381).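 Also: fluorescence polarization of a Cy5 DNA probe bound by EBNA-1 protein.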 Details: species or system human gammaherpesvirus 4. A general note: In fluorescence polarisation assays a small probe gives low polarisation when free and higher when bound to something large.

Assay [2] deals with Lytic switch protein BZLF1 (Epstein-Barr virus (strain B95-8) (HHV-4) (Human herpesvirus 4), UniProt P03206). The experiment in a line: EBV ZTA inhibitors, dose response, counter-screen for EBNA-1 inhibitor project, biochemical, fluorescence polarization, Epstein-Barr virus, 1536-well (AID 2377).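 Also: fluorescence polarization of Cy5-labelled ZRE DNA probe bound by purified Zta.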 Details: species or system human gammaherpesvirus 4.
Assay [3] can be described thus: control 3'UTR Renilla luciferase suppression, dose response, counter-screen for Shn3 inhibitor project, cell-based, Clone20-Shn3RL, cherry-picked (AID 624133). It is filed as functional.
Assay [4] can be described thus: HepG2 cell cytotoxicity, dose response, cytotoxicity control for Shn3 inhibitor project, CellTiter-Glo, cherry-picked (AID 624134). It is filed as functional, cell-based. (ATP-based viability assays read luminescence as a measure of living cells.)
Assay [5] in a line: Shn3 3'UTR reporter inhibitors, dose response, cell-based, Clone20 osteoblasts, firefly luciferase, cherry-picked (AID 624132).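 Also: firefly luciferase luminescence from reporter carrying the Shn3 3'UTR in osteoblasts.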 The assay is classed as functional.
The next assay relates to HeLa. The experiment in a line: Cytotoxicity counterscreen assay for transcriptional activators of heat shock protein 70 (Hsp70). [Related pubchem assays: 1203, 1252 ]. The assay is classed as functional. The note with it: Homo sapiens.
The target in assay [6] is T1, Microphthalmia-associated transcription factor (Homo sapiens, UniProt O75030).
T1 sequence (O75030 whole entry): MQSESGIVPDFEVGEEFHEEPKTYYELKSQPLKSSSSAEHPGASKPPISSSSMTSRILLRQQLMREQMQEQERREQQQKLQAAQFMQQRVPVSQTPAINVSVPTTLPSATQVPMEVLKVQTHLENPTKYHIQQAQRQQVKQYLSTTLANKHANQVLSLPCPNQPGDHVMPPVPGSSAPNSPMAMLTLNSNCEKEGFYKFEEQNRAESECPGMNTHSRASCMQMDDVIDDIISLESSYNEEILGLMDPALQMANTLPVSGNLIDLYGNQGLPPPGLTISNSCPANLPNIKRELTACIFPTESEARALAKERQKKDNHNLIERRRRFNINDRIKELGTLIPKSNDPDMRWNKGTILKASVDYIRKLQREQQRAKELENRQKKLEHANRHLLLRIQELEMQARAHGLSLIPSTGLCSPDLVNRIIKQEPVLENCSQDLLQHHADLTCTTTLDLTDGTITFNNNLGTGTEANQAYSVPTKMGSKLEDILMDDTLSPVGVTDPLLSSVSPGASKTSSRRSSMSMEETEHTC
The assay is described as follows: TRPM1 promoter luciferase signal decrease, dose response, MITF inhibitor project, cell-based, SK-MEL-5, cherry-picked, set 3 (AID 493073).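 Also: SK-MEL-5 melanoma cells with luciferase driven by the MITF target TRPM1 promoter.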 It is filed as functional.

Assay [7] can be described thus: A549 cell cytotoxicity, dose response, cytotoxicity control, cherry-picks, 26 µM top dose (AID 1053119). It is filed as functional, cell-based.
For a further assay, the target named is NADPH oxidase 1 (Homo sapiens, UniProt Q9Y5S8). The assay is classed as functional, cell-based.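 Also: Cell-based assay with luminescence read-out, IC50 derived from inhibitor dose-response curves; intracellular ROS from endogenous NOX1 in intact HT29 colon cancer cells; potency of inhibitors that lower the ROS luminescence signal.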
The target of the next assay is Troponin, cardiac muscle (Homo sapiens, UniProt P19429+P45379+P63316). The assay is described as follows: Fluorescence-based biochemical high throughput dose response assay for activators of the calcium sensitivity of cardiac Regulated Thin Filaments (RTF). [Related pubchem assays (depositor defined):AID493008, AID493018, AID504382, AID504383]. It is filed as protein-complex assay.

The nature of assay [8]: M. tuberculosis H37Rv growth inhibitors, H37Rv strain (AID 1626). The assay is classed as functional.
Assay [9] concerns the target T2, Short transient receptor potential channel 4 (Mus musculus, UniProt Q9QUQ5).
T2 sequence (Q9QUQ5 whole entry): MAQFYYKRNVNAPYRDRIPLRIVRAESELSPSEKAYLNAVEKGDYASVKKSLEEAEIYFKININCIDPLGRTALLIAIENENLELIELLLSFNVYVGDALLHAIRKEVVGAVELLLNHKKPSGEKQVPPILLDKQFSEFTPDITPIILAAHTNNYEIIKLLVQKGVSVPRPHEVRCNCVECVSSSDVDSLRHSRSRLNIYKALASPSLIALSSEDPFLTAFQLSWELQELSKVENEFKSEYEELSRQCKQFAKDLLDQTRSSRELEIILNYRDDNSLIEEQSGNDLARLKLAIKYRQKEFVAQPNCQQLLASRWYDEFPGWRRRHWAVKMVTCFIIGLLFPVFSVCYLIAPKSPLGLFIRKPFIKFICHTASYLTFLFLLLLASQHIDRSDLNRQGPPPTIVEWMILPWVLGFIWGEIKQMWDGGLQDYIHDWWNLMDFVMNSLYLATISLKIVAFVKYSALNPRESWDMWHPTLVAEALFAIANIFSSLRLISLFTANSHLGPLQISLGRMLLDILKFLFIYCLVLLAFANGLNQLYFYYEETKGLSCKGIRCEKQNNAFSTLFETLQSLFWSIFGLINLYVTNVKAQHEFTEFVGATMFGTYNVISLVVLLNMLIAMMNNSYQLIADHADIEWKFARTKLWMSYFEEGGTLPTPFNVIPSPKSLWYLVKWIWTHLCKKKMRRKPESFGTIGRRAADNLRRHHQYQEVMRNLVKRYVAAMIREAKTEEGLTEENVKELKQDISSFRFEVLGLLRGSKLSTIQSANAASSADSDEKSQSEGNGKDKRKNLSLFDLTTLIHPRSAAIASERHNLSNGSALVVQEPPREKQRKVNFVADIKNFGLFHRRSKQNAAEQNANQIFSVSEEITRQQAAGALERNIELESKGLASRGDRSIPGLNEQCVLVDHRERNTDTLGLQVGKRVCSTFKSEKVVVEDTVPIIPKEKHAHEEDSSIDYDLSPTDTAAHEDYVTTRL
The assay is described as follows: mouse TRPC4 channel activators, dose response, cell-based, HEK293 TRPC4/mu-opioid, Fluo-4 calcium (AID 434937). It is filed as functional.

Assay [10] can be described thus: enhancers of respiration in Yfh1-depleted yeast, dose response, Friedreich's ataxia, plus single-dose screen (AID 1465).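 Also: yeast depleted of Yfh1p frataxin homolog grown on glycerol needing respiration; WST-1 tetrazolium dye reduction as measure of cellular dehydrogenase metabolic activity.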 It is filed as functional.
For the next assay, the target named is NS3 (Hepatitis C virus, UniProt A3EZJ3). The experiment in a line: PubChem AID 2173. Also noted: species or system Hepacivirus hominis.

Calls of active or inactive are those of the source.
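For CC50 in this document: cells exposed to compound for 16 hours before readout.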

Sequence of Lytic switch protein BZLF1 (P03206 whole entry): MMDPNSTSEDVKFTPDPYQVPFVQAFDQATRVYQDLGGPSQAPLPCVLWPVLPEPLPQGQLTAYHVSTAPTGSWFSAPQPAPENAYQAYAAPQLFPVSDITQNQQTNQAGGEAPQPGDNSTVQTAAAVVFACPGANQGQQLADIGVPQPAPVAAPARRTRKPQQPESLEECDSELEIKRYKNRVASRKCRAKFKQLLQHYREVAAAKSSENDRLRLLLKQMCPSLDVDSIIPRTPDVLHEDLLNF
Sequence of NS3 (A3EZJ3 whole entry): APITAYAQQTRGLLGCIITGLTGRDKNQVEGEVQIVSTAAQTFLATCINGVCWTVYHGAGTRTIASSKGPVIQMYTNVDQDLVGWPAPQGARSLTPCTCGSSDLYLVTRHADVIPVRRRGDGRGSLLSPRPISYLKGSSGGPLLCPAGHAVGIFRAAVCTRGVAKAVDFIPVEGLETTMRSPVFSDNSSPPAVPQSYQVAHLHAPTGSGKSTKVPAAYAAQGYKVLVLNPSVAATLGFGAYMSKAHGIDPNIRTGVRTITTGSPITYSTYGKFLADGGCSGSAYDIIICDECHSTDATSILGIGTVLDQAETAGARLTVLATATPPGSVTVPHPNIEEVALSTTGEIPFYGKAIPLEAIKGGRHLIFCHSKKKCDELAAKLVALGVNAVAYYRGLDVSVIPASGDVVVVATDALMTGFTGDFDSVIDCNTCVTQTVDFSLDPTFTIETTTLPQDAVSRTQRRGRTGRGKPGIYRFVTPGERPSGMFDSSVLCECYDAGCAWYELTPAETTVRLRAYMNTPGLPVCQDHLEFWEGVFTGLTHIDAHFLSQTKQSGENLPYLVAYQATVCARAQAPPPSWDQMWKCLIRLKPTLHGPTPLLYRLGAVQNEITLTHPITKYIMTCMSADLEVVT
Sequence of NADPH oxidase 1 (Q9Y5S8 whole entry): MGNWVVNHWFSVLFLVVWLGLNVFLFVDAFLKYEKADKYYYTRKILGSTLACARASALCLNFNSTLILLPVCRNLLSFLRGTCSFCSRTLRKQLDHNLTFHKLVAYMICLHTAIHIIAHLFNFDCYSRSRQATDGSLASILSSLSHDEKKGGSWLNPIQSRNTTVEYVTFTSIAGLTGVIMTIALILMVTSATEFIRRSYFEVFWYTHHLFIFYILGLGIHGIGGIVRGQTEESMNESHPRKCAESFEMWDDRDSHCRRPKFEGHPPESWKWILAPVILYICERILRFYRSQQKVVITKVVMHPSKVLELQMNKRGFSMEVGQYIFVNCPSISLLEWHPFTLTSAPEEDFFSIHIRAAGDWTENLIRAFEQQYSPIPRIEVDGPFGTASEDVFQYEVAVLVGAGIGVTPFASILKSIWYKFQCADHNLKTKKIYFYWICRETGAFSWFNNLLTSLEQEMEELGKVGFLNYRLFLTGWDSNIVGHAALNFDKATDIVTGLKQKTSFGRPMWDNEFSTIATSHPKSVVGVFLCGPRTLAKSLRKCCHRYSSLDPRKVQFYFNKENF
Sequence of Epstein-Barr nuclear antigen 1 (P03211 whole entry): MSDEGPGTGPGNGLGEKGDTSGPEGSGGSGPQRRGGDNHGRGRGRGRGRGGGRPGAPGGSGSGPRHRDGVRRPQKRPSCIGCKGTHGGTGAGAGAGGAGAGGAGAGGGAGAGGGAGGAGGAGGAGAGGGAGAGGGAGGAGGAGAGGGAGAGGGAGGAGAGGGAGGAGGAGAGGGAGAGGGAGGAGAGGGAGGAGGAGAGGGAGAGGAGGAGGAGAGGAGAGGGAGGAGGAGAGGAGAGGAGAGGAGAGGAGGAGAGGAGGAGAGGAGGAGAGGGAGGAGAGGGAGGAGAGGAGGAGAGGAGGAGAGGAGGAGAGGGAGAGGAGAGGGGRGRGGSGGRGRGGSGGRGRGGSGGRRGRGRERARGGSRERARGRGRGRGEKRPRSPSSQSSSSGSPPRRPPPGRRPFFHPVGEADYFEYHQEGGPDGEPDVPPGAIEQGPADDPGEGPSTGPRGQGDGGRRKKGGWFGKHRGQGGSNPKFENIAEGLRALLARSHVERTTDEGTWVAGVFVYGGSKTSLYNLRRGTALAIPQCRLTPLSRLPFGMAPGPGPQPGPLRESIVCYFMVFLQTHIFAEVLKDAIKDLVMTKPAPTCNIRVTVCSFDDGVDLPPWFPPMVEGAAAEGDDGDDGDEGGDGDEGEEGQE

For orientation: IC50 means the concentration needed to halve the response being measured. `COc1cc(NC(=O)c2ccc(Br)cc2)c(OC)cc1NC(=O)c1ccccc1`: the IC50 is on record as 15.4 µM (not active) in assay [1] and > 111 µM (not active) in assay [2].

Usually AC50 stands for the concentration giving half of the maximal activity seen. Broadly, the CC50 is the concentration giving 50% cytotoxicity. Turning to `CS(=O)(=O)N1CCN(c2ccc(NC(=O)c3ccc([N+](=O)[O-])o3)cc2)CC1`, the AC50 was 7.78 µM (active) in assay [3]; 64.6 µM (active) in [4]; 5.65 µM (active) in assay [5]; 4.92 µM (active) in assay [6]; 49.3 µM (active) in assay [7]. In the assay on HeLa, the CC50 was 4.95 µM (active).

Turning to `COc1ccc(-c2nc(-c3ccccc3)c(-c3ccccc3)[nH]2)cc1O`, the IC50 against NADPH oxidase 1 is on record as > 17 µM (not active).

In general, EC50 refers to the concentration needed to bring the measured effect to its halfway point. Consider `CC(C)(C)C(=O)/C=c1\s/c(=C\c2ccc(-c3ccc([N+](=O)[O-])cc3)o2)c(=O)n1CC(=O)NC(N)=O`, for which the EC50 was 0.565 µM (active) on Troponin, cardiac muscle and 5.31 µM (active) in assay [9]. Further, the concentration for half-maximal inhibition (IC50) in [8] is > 100 µM (active).

`Cn1cccc1/C=C1/SC(=S)N(CC(=O)O)C1=O`: the EC50 in [10] was > 100 µM (active).

For the molecule `Cc1cc(O)c(C(=O)/C=C/c2c(F)c(F)c(F)c(F)c2F)c(=O)o1`, on NS3, the IC50 was 8.85 µM (active).
